# In paper PMC12658643, “Effects of Ligand N and O Donor Content on the Structure, Aqueous Stability, and SOD Activity of a Series of Mn^2+ Complexes with Pyridine-Containing Tripodal Ligands” (ACS Omega, 2025):
# Like-named read-outs stand apart in the source and are kept apart here.
# Columns and labels:
# superoxide ion [1] = assay: McCord-Fridovich assay (SOD activity, inhibition of ferricytochrome c reduction by superoxide ion); type: biochemical
# From the text: The McCord–Fridovich assay was used to measure the SOD activity of the Mn^2+ complexes of our ligands formed in situ. This assay utilizes the reaction of xanthine oxidase with xanthine to produce superoxide ion which, in turn, reduces ferricytochrome C. The reduction of ferricytochrome C is monitored at 550 nm in the absence and presence of SOD mimics to determine the concentration at which the complexes inhibit ferricytochrome C reduction by 50%, their IC50 value. […] Stock solutions of cytochrome C, xanthine, xanthine oxidase, catalase, and MnCl2 were also prepared with this buffer. The temperature of the reactions was held constant at 25 °C using a Peltier attachment to the spectrophotometer. For a typical reaction, a solution was prepared in a cuvette containing 50 μM cytochrome c, 50 μM xanthine, 30 μg/mL catalase, and enough buffer to provide a total of 3 mL of solution. Approximately 100 μg/mL xanthine oxidase was added to initiate the reaction. This quantity was adjusted to give an initial velocity of 0.025–0.030 ΔAbs550nm/min. The reaction was monitored at 550 nm. After 2.5 min, a quantity of MnCl2 was added and the absorbance was monitored for another 2.5 min. Reactions were run in triplicate for each different concentration of Mn^2+ examined, and percent inhibition was calculated as %I=(V0−Vf/V0)×100% , where V 0 and V f are the initial and final velocities respectively. Plots of %I vs [Mn^2+] were used to determine the IC50 for each complex. To verify the fidelity of the McCord-Fridovich assay, the production of urate by the xanthine/xanthine oxidase reaction at 290 nm in the absence and presence of each complex, and no inhibition at a concentration higher than the IC50 was observed.
# The SOD-like activity of Mn^2+ complexes of the tripodal ligands was evaluated using the McCord-Fridovich assay. This is an indirect assay that examines the reduction of ferricytochrome c by superoxide ion in the absence and presence of SOD or potential SOD mimetic compounds. The reaction of xanthine with xanthine oxidase provides a source of superoxide ion for the assay, and the reduction of ferricytochrome c is monitored at 550 nm. Given their low to moderate aqueous stability, it was not possible to use preformed complexes for these assays since we would not expect them to remain intact at the micromolar concentrations employed. Instead, Mn^2+ complexes were formed in situ, in buffered, aqueous solution (pH 7.5), by combining the ligands with manganese(II) chloride. In each case, an excess of ligand was included to produce Mn^2+ complexation as close to 100% as possible, while avoiding solubility issues. Percent complexation of the complexes under these conditions has been estimated from the 1:1 [MnL]^2+ stability constants (βMnL) in Table , based on the ligand complex concentration employed and an Mn^2+ concentration close to the IC50 values of the complexes (0.1 μM). We note that, given the high concentrations of ligand present in our experiments, higher speciation complexes (e.g., [MnL2]^2+) may also be present in our reaction solutions, resulting from adventitious mono-or bidentate-coordination of an additional ligand. These types of species have been observed previously for Mn^2+ complexes with a related ligand (HPClNOL), where HPClNOL is the tripodal ligand {1-[bis(pyridine-2-ylmethyl)-amino]-3-chloropropan-2-ol}, yet in a 50:50, MeOH/H2O solution where overall complex stability is expected to be much higher. Since we cannot rule out higher speciation under the conditions of these in situ experiments, our use of the term Mn^2+ complexes is meant to indicate all [MnL]^2+ or [MnL x ]^2+ species present in reaction solutions here.
# Percent inhibition plots for MnCl2 in both HEPES and phosphate buffer are provided in Supporting Information (Figures S35 and S36). […]
# [2] = for Log βMnL (stability constant of the Mn^2+ complex) / pK aMnL(H2O) (acid dissociation constant of an associated aqua ligand) / Log Ka MnL(H2O) / Log bMnL: I = 0.10 M KCl; for Log βMnL (stability constant of the Mn^2+ complex) / pK aMnL(H2O) (acid dissociation constant of an associated aqua ligand): t = 25 °C; for conditional complex formation: McCord-Fridovich assay conditions, HEPES buffer pH 7.5, excess ligand, Mn^2+ 0.1 μM, estimated from βMnL; for Log Ka MnL(H2O) / Log bMnL: Table S35, t = 25°C; for % Complex (McCord-Fridovich assays): Table S37, ligand 0.001 M (TMPA, DPEA, DPMEA) or 0.01 M (PDEA, PDMEA), MnCl2 0.1 µM, estimated from stability studies; for % Complex (complex formation under cyclic voltammetry conditions): ligand 0.001 M (TMPA) or 0.01 M, MnCl2 0.001 M, estimated from complex stability studies
# [3] = Potentiometric titration of the acidified ligands (protonation constants); conditions: I = 0.10 M KCl; for Log βLH1 (protonation constant of the ligand) / Log βLH2 (protonation constant of the ligand): t = 25 °C; for Log Ka1 / Log Ka2: Table S35, t = 25°C
# superoxide ion [4] = conditions: reported previously; reference not given; read-out: IC50 (SOD activity); cited from earlier work
# [5] = Cyclic voltammetry of Mn^2+ complexes formed in situ, Mn^III/Mn^II couple; type: physicochemical
# Experimental: Cyclic voltammograms were recorded in 50 mM collidine buffer, pH 7.5, using an eDAQ 466 Integrated Potentiostat System with EChem software. Mn^2+ complexes were formed in situ in the presence of excess ligand to ensure a high percentage of complex formation (see Table S35 in Supporting Information) according to our stability studies vide infra. A glassy carbon working electrode, Ag/AgCl reference electrode, and Pt/Ti auxiliary electrode were employed. Prior to recording CVs, solutions were bubbled with nitrogen gas for 15 min to eliminate oxygen. CVs were then recorded at a scan rate of 100 mV/s.
# Cyclic voltammograms of the Mn^2+ complexes of TMPA, DPEA, DPMEA, PDEA, and PDMEA, prepared in situ in buffered aqueous solution (pH 7.5), were recorded vs Ag/AgCl to determine the reduction potential (E 1/2) for the Mn^III/Mn^II couple. A cyclic voltammogram of MnCl2 in the buffered solution was also recorded for the purpose of comparison. Collidine buffer was employed for analysis since it tends to permit visualization of electrochemical waves for Mn^2+ complexes with pyridine-containing ligands, where other solvents/buffers can lead to ill-defined or absent features for these species. Ligand and MnCl2 concentrations were chosen to ensure near complete (N4 and N3O), or substantial (N2O2) complex formation according to our stability studies. For [MnTMPA]^2+, an equimolar amount of TMPA and MnCl2 were used (0.001 M), and for all other complexes, ligand concentration (0.01 M) was 10-fold the concentration of MnCl2 (0.001 M). In each case, […] waves were recorded where the difference in oxidation and reduction peak positions (ΔE p) is greater than 59 mV. Redox potential values (E 1/2), determined from the average of the positions of the oxidation and reduction peaks, are given in Table along with ΔE p values. The distinct positions of these peaks, relative to those of MnCl2, further corroborate [MnL]^2+ aqueous complex formation of the N4, N3O, and N2O2 ligands employed. Voltammograms can be found in Supporting Information (Figures S29–S34 ).
# [6] = given for comparison to the complexes; reference not given; cited from earlier work
# [7] = HEPES buffer, pH 7.5, measured IC50 corrected for expected percent complex formation, read-out: apparent IC50
# [8] = Mn^2+ complexes formed in situ with excess ligand, 50 mM HEPES buffer, pH 7.5, 25 °C, concentration as Mn^2+, read-out: measured IC50
# [9] = collidine buffer, pH 7.5, scan rate 100 mV/s, vs Ag/AgCl
# [10] = HEPES buffer, pH 7.5, estimated using kcat=kcytc[cytc]/IC50, k cytc = 2.6 × 10^5 M^–1 s^–1, [cyt c] = 5 × 10^–5 M
molecule,measurement,setting,value
"OCCN(Cc1ccccn1)Cc1ccccn1 [DPEA, N,N-Bis(2-pyridylmethyl)ethanolamine]",IC50,superoxide ion [1]; [7],140 nM
same,IC50,superoxide ion [1]; [8],150 nM
same,Log βMnL (stability constant of the Mn^2+ complex),[2],4.12(1)
same,pK aMnL(H2O) (acid dissociation constant of an associated aqua ligand),[2],5.63(1)
same,conditional complex formation,[2],92%
same,Log Ka MnL(H2O),[2],-5.63(1)
same,Log bMnL,[2],4.12(1)
same,% Complex (McCord-Fridovich assays),[2],92%
same,% Complex (complex formation under cyclic voltammetry conditions),[2],98%
same,Log βLH1 (protonation constant of the ligand),[3],6.10(1)
same,Log βLH2 (protonation constant of the ligand),[3],9.40(3)
same,Log Ka1,[3],6.10(1)
same,Log Ka2,[3],9.40(3)
"COCCN(Cc1ccccn1)Cc1ccccn1 [DPMEA, 2-Methoxy-N,N-bis(pyridin-2-ylmethyl)ethan-1-amine]",IC50,superoxide ion [1]; [7],480 nM
same,IC50,superoxide ion [1]; [8],600 nM
same,Log βMnL (stability constant of the Mn^2+ complex),[2],3.71(2)
same,pK aMnL(H2O) (acid dissociation constant of an associated aqua ligand),[2],6.07(2)
same,conditional complex formation,[2],80%
same,Log Ka MnL(H2O),[2],-6.07(2)
same,Log bMnL,[2],3.71(2)
same,% Complex (McCord-Fridovich assays),[2],80%
same,% Complex (complex formation under cyclic voltammetry conditions),[2],97%
same,Log βLH1 (protonation constant of the ligand),[3],6.19(1)
same,Log βLH2 (protonation constant of the ligand),[3],9.81(1)
same,Log Ka1,[3],6.19(1)
same,Log Ka2,[3],9.81(1)
OC(CCl)CN(Cc1ccccn1)Cc1ccccn1.[Cl][Mn][Cl] (stereo not shown) [Mn(HPClNOL)Cl2],IC50,superoxide ion [4],350 nM
"[Cl][Mn][Cl] [MnCl2, manganese(II) chloride, reference compound]",ΔE p,"[5]; collidine buffer, pH 7.5, scan rate 100 mV/s",0.285
same,E oxid,[5]; [9],0.415 V
same,E red,[5]; [9],0.130 V
same,E 1/2 vs Ag/AgCl,"[5]; collidine buffer, pH 7.5, average of oxidation and reduction peak positions",0.273 V
same,E 1/2 vs SHE,[5]; converted using E 1/2 SHE = E 1/2 Ag/AgCl + 0.197 V,0.470 V
same,k cat,"superoxide ion [1]; 50 mM phosphate buffer, pH 7.5, estimated from IC50",2.8 × 10^7 M^–1 s^–1
same,IC50,"superoxide ion [1]; 50 mM phosphate buffer, pH 7.5, read-out: measured IC50",470 nM
same,SOD activity in the range of the IC50 values of the complexes,superoxide ion [1]; HEPES buffer,do not observe measurable SOD activity
same,k cat,superoxide ion [1]; [10],1.0 × 10^6 M^–1 s^–1
same,IC50,superoxide ion [1]; [8],13000 nM
"OCCN(CCO)Cc1ccccn1 [PDEA, 2,2′-((Pyridin-2-ylmethyl)azanediyl)bis(ethan-1-ol)]",IC50,superoxide ion [1]; [7],70 nM
same,IC50,superoxide ion [1]; [8],110 nM
same,pK aMnL(H2O) (acid dissociation constant of an associated aqua ligand),[2],7.00(2)
same,conditional complex formation,[2],66%
same,Log Ka MnL(H2O),[2],-7.00(2)
same,% Complex (McCord-Fridovich assays),[2],66%
same,% Complex (complex formation under cyclic voltammetry conditions),[2],66%
same,Log βLH1 (protonation constant of the ligand),[3],6.78(1)
same,Log Ka1,[3],6.78(1)
"COCCN(CCOC)Cc1ccccn1 [PDMEA, 2-Methoxy-N-(2-methoxyethyl)-N-(pyridin-2-ylmethyl)ethan-1-amine]",k cat,superoxide ion [1]; [10],1.6 × 10^7 M^–1 s^–1
same,IC50,superoxide ion [1]; [7],790 nM
same,IC50,superoxide ion [1]; [8],1300 nM
same,Log βMnL (stability constant of the Mn^2+ complex),[2],2.32(2)
same,pK aMnL(H2O) (acid dissociation constant of an associated aqua ligand),[2],6.6(1)
same,conditional complex formation,[2],61%
same,Log Ka MnL(H2O),[2],-6.6(1)
same,Log bMnL,[2],2.32(2)
same,% Complex (McCord-Fridovich assays),[2],61%
same,% Complex (complex formation under cyclic voltammetry conditions),[2],61%
same,Log βLH1 (protonation constant of the ligand),[3],6.90(2)
same,Log Ka1,[3],6.90(2)
"c1ccc(CN(Cc2ccccn2)Cc2ccccn2)nc1 [TMPA, Tris(pyridin-2-ylmethyl)amine]",IC50,superoxide ion [1]; [7],300 nM
same,IC50,superoxide ion [1]; [8],300 nM
same,Log βMnL (stability constant of the Mn^2+ complex),[2],5.24(2)
same,pK aMnL(H2O) (acid dissociation constant of an associated aqua ligand),[2],4.98(3)
same,conditional complex formation,[2],99%
same,Log Ka MnL(H2O),[2],-4.98(3)
same,Log bMnL,[2],5.24(2)
same,% Complex (McCord-Fridovich assays),[2],99%
same,% Complex (complex formation under cyclic voltammetry conditions),[2],93%
same,Log βLH1 (protonation constant of the ligand),[3],6.01(1)
same,Log βLH2 (protonation constant of the ligand),[3],10.08(1)
same,Log Ka1,[3],6.01(1)
same,Log Ka2,[3],10.08(1)
"Human MnSOD: human manganese superoxide dismutase enzyme (protein, UniProt P04179 25-222, looked up) Superoxide dismutase [Mn], …: KHSLPDLPYDYGALEPHINAQIMQLHHSKHHAAYVNNLNVTEEKYQEALAKGDVTAQIALQPALKFNGGGHINHSIFWTNLSPNGGGEPKGELLEAIKRDFGSFDKFKEKLTAASVGVQGSGWGWLGFNKERGHLQIAACPNQDPLQGTTGLIPLLGIDVWEHAYYLQYKNVRPDYLKAIWNVINWENVTERYMACKK",E 1/2 vs SHE of MnSOD enzymes,[6],0.29 V
"Escherichia coli MnSOD: manganese superoxide dismutase enzyme of Escherichia coli (protein, UniProt P00448 2-206, looked up) Superoxide dismutase [Mn]: SYTLPSLPYAYDALEPHFDKQTMEIHHTKHHQTYVNNANAALESLPEFANLPVEELITKLDQLPADKKTVLRNNAGGHANHSLFWKGLKKGTTLQGDLKAAIERDFGSVDNFKAEFEKAAASRFGSGWAWLVLKGDKLAVVSTANQDSPLMGEAISGASGFPIMGLDVWEHAYYLKFQNRRPDYIKEFWNVVNWDEAAARFAAKK",E 1/2 vs SHE of MnSOD enzymes,[6],0.40 V
